Experimental data published in ChEMBL document CHEMBL3352589, “The use of spirocyclic scaffolds in drug discovery” (Bioorg Med Chem Lett, 2014).

Molecular target: 5-hydroxytryptamine receptor 6 (Homo sapiens, UniProt P50406)
Assay: Antagonist activity at 5-HT6 receptor (unknown origin)

5-hydroxytryptamine receptor 6, sequence (P50406 whole entry): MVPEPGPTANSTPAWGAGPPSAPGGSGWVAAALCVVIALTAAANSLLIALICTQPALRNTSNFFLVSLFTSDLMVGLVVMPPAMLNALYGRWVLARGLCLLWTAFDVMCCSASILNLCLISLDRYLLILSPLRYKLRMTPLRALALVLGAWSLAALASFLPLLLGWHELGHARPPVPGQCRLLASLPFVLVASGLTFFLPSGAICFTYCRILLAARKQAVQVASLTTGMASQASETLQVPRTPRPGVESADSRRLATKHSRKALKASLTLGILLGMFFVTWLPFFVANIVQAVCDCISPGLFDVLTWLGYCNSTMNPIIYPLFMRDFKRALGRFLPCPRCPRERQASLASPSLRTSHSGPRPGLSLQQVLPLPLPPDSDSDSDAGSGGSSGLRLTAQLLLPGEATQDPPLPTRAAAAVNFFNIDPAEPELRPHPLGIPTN

| Compound | Ki [nM] |
| --- | --- |
| CN1CCc2ccc(N3C(=O)CSC34C(=O)Nc3ccccc34)cc2CC1 (racemic) | 26 |
| CN1CCc2ccc(N3C(=O)CSC34C(=O)Nc3ccccc34)cc2CC1 (single isomer, unassigned) | 15 |
